Measurements reported in patent US7319090B2, “Methods of treating cerebral ischemia” (University of North Carolina at Chapel Hill, priority 2002, dated 2008).
Where a SMILES comes first, the peptide text is derived from it. Where no end group is shown, it is not given here. [ ]: non-standard residue; d: D form. Ala(indol-4-yl) = N[C@@H](Cc1cccc2[nH]ccc12)C(=O)O; NMeR = CN[C@@H](CCCNC(=N)N)C(=O)O; Tle = CC(C)(C)[C@H](N)C(=O)O; dOrn = NCCC[C@@H](N)C(=O)O; neo‑Trp = not defined here

Key:
Format in all cases: in vivo, rat
[1] = system: Sprague-Dawley rats; assay: Behavioral thermoregulation in a temperature gradient (selected Ta, core temperature, motor activity) after NT77
Method: Male rats of the Sprague-Dawley strain at 60 days of age were obtained from Charles River Laboratories (Raleigh, N.C.). The animals were housed individually in acrylic cages lined with wood shavings at an ambient temperature (Ta) of 22° C., relative humidity of 50%, and a 12 hour light:12 hour dark photoperiod (lights were turned on at 6 a.m. and turned off at 6 p.m.). Core temperature and motor activity were monitored in undisturbed rats using radio telemetry (Data Sciences International, St. Paul, Minn.). Details of the telemetry system are described in Gordon, C. J., 24-hour control of body temperature in the rat: I. Integration of behavioral and autonomic effectors, Am. J. Physiol. 267, […]-[…], 1994. Briefly, rats were anesthetized with sodium pentobarbital (50 mg/kg; intraperitoneally) and an incision was made for the implantation of the transmitter (TAIOTA-F40) into the abdominal cavity. The abdominal muscle was sutured and the skin was closed with wound clips. […] The behavioral thermoregulatory response to NT77 was assessed by measuring selected ambient temperature (Selected Ta) of the unrestrained rats when housed in a temperature gradient (Gordon, C. J., 24-hour control of body temperature in the rat: I. Integration of behavioral and autonomic effectors, Am. J. Physiol. 267, […]-[…], 1994). Rats were placed in a temperature gradient and allowed to behaviorally select from a range of ambient temperatures (Ta) while core temperature (Tc) was monitored by radiotelemetry. Selected Ta, core temperature (Tc), and motor activity were monitored at 1 minute intervals. […] Selected Ta was measured by photocells positioned at 10 cm intervals that detected the position of the rat in the gradient and automatically compared the position to the air temperature measured by thermocouples placed immediately outside the wire-mesh cage. Motor activity was calculated by measuring the change in position of the rat in the gradient at 1 minute intervals. […] The behavioral and core temperature data were recorded at 1 minute intervals throughout the experiment. […]

[2] = system: Sprague-Dawley rats; assay: Metabolism and heat loss in a direct calorimeter after NT77; details: 5.0 mg/kg i.p.; data not shown
Method: Oxygen consumption and dry heat loss were measured in naive rats implanted with radiotransmitters and housed in a direct calorimeter. The internal dimensions of the calorimeter were 30.5 cm×30.5 cm×30.5 cm. The calorimeter was used to measure the rate of dry heat loss (i.e., thermal conductance) from the rats using thermoelectric sensors in the calorimeter walls. The calorimeter was housed inside a temperature-controlled chamber maintained at 23.5° C. The inside of the calorimeter was dimly illuminated with LED lights (total power=0.2 Watts). […]
A mass flow controller was used to meter dry air at a constant flow rate (2.7 liters/minute; STP) into the calorimeter. […] Percent oxygen, dry heat loss, air flow rate, and calorimeter temperature were monitored at 1 minute intervals by a data acquisition system (Dianachart PC acquisitor). […] (W/C) was calculated by dividing the value of dry heat loss at 1 minute intervals by the difference between core and ambient temperature. […]
A naive rat was placed in the wire-mesh cage which was then placed inside the calorimeter at approximately 9 a.m. […] After 115 minutes, the percent oxygen of the inflowing air was measured for another 5 minutes for calibration purposes but the rat was not disturbed. […]

[3] = system: Sprague-Dawley rats resuscitated from asphyxial cardiac arrest
Description: Sixteen male Sprague-Dawley rats (Harlan; Madison, Wis.) weighing 300±50 grams were randomized to a control group (saline) or treatment group (NT69L) after resuscitation from asphyxial cardiac arrest. The outcome model of asphyxial cardiac arrest in rats was used to induce the cerebral insult in all rats (Katz et al., Outcome model of asphyxial cardiac arrest in rats, J. Cereb. Blood Flow Metab., 1995, 15:1032-1039). Under titrated inhaled isoflurane anesthesia, brain telemetric probes (Mini-Mitter; Sunriver, Oreg.) were implanted three days before the cerebral insult. […] On the day of the cerebral insult, rats were again anesthetized with inhaled isoflurane anesthesia, intubated, and mechanically ventilated. A tail artery was cannulated for continuous blood pressure monitoring and blood gas analysis, while the jugular vein was cannulated for intravenous drug administration. Intravenous vecuronium (2 mg/kg intravenous) and cessation of mechanical ventilation were used to induce apneic asphyxia. Asphyxia led to cardiac arrest (i.e., mean arterial pressure (MAP)<10 mm Hg and a pulse pressure of 0 mm Hg) within approximately 3 minutes; the cardiac arrest was maintained until resuscitation. Eight minutes after asphyxia, the rats were resuscitated with mechanical ventilation (100% oxygen), 0.005 mg/kg intravenous epinephrine, and chest compressions until a mean arterial pressure of 60 mm Hg was produced and maintained by a spontaneously beating heart for more than 10 seconds. Immediately after restoration of spontaneous circulation (ROSC), the rats were placed in an incubator that maintained an ambient temperature of 31.6° C. […] Ten minutes after ROSC, NT69L (0.5 mg/kg) […] or saline 3 mL/kg was administered intravenously. The ventilator was adjusted to normalize temperature-corrected arterial carbon dioxide before the insult and for two hours after ROSC. Two hours after ROSC, spontaneously breathing rats were extubated and maintained in the incubator for 24 hours. Rats were handled daily after the experiment and had free access to food and water.
(§1) Physiological variables (arterial blood gas, glucose, and MAP) between groups were compared by a one-way analysis of variance (ANOVA). All values were reported as means±standard deviation unless otherwise stated. A one-way analysis of variance (ANOVA) was used to determine the between-group differences in latency time for finding the platform during the MWM on day 14. When an overall significant difference was found, a Tukey post-hoc analysis was used to determine specific between-group differences. Performances on the MWM (learning curve) between days 10 and 14 were compared between groups by a repeated measure ANOVA. Neurological deficit scores between groups were assessed by Kruskal-Wallis analysis. For all analyses, alpha was set at a p<0.05 level of significance.

[4] = system: Sprague-Dawley rats resuscitated from asphyxial cardiac arrest; assay: Morris Water Maze on days 10-14 after ROSC (NT69L)
Method: On days 10-14 after ROSC, the rats were accessed for performance in a Morris Water Maze (MWM). Evaluation was begun on day 10 to ensure that there was complete recovery from anesthesia and the surgical procedures based on prior pilot studies (data not shown). A six foot diameter round pool was filled with water (26° C.) to a depth of 20 cm, 1 cm above an 11-cm diameter clear glass escape platform. The escape platform was invisible to a swimming rat and was placed in the northeast quadrant of the pool. The pool had large visible and distinct geometric shapes placed in a north, south, east, and west distribution on the side of the pool wall so that a swimming rat could easily visualize the orientation markers. The pool was situated in a room with black walls and ceiling to minimize external distractions for the rats. Rats were initially placed in the pool (without the escape platform) for 2 minutes to become acclimatized to the new swimming environment. The rats were then placed on the escape platform for 30 seconds to allow for self orientation in the pool. Next, the rats were randomly placed in each of the four geographic outer regions of the pool and their travel path, swim speed, and time required to locate the hidden platform (latency time) were recorded. Rats performed four swim trials on each day with a maximum swim time of 2 minutes, at which time the trial was terminated if a rat was unable to locate the platform. A 3-minute rest period was provided between trials. In addition to the rats that sustained cardiac arrest (n=16), nine sham rats were surgically instrumented and allowed to recover for ten days before being assessed for performance in the MWM.
as §1

[5] = system: Sprague-Dawley rats resuscitated from asphyxial cardiac arrest; assay: Neurological deficit score 14 days after ROSC (NT69L)
Method: A final neurological deficit score (NDS) was performed 14 days after ROSC by an evaluator blinded to the insult and therapeutic intervention. Rats were tested for coordination (balance beam walk placing test, depth perception, righting reflex) and for motor and sensory function as described in Katz et al., Outcome model of asphyxial cardiac arrest in rats, J. Cereb. Blood Flow Metab., 1995, 15:1032-1039. The NDS includes a range from 0 (indicating normal) to 100 (indicating brain dead).
as §1

[6] = system: free-roaming, unanesthetized rats; assay: Pilot: brain temperature of free-roaming unanesthetized rats without cardiac arrest given NT69L; details: no cardiac arrest, room temperature 23° C., i.v.
Method: In separate pilot experiments, four rats were instrumented for placement of temperature probes and intravenous catheters as described above. Three days after recovery from anesthesia, NT69L was administered intravenously to two free-roaming, unanesthetized rats at room temperature (23° C.). In the same environment and at the same time, two rats were given a similar volume of saline for comparison.

[7] = NT69L 0.5 mg/kg i.v., ambient 31.6° C.
[8] = intravenously after resuscitation from cardiac arrest
[9] = one NT69L group rat, day 14 after resuscitation

effect on motor activity ([1]; 5.0 mg/kg i.p., temperature gradient)	core temperatures and selected Ta's during the night after treatment ([1]; 5.0 mg/kg i.p., data not shown)	effect on motor activity in the calorimeter [2]	Molecule	loss of initial body weight ([1]; day after treatment, saline 1.6%) [%]	duration of mild hypothermia (mean) ([3]; NT69L 0.5 mg/kg i.v.) [min]	duration of mild hypothermia (median) ([3]; NT69L 0.5 mg/kg i.v.) [min]	duration of mild hypothermia (range) ([3]; NT69L 0.5 mg/kg i.v.) [min]	time until brain temperature dropped below 35° C. after administration (mean) [3, 7]	time until brain temperature dropped below 35° C. after administration (range) [3, 7] [min]	rats with ROSC that survived 14 days ([3]; each group, same as control)	hypothermia produced (conclusion) [3, 8]	hypotension produced ([3]; rat, in vivo)	latency time in Morris Water Maze ([4]; fourteen days after ROSC, control 45±26, sham 10±3) [s]	distance traveled, sample path of one rat (FIG. 1) [4, 9] [cm]	latency time, sample path of one rat (FIG. 1) [4, 9] [s]	rates of change of latency time over days 10-14 versus control ([4]; p=0.15 repeated-measures ANOVA)	swimming speed during MWM testing ([4]; sham 27±2, control 25±1) [cm/s]	neurological deficit score (NDS) ([5]; 14 days after ROSC, 0 normal to 100 brain dead, control 30±10)	neurological outcome (conclusion) [5, 8]	brain temperature versus saline rats [6]
no effect	normal	no discernable effect	CC(C)C[C@H](NC(=O)[C@@H](NC(=O)[C@H](Cc1cccc2[nH]ccc12)NC(=O)[C@@H]1CCCN1C(=O)[C@@H](CCCN)NC(=O)[C@@H](N)CCCNC(=N)N)C(C)(C)C)C(=O)O [NT77] (H-R[dOrn]P[Ala(indol-4-yl)][Tle]L-OH)	2.4	–	–	–	–	–	–	–	–	–	–	–	–	–	–	–	–
–	–	–	NT69L: neurotensin analog, SEQ ID NO: 16, positions 8-13: N-methyl-Arg, L-Lys, L-Pro, L-neo-Trp, tert-Leu, L-Leu ([NMeR]KP[neo‑Trp][Tle]L; reading uncertain)	–	300 ± 100	367	20 to 400	13+3 minutes	8 to 15	Seven out of eight	rapid and prolonged mild hypothermia	mild and transient	22 ± 8	225	9	no difference	26 ± 1	3±3	improved neurological outcome	drop in brain temperature
